Values of other authors in patent US20240156749A1, “Pre And Post Natal Compositions Including Carotenoids” (Maravilla, LLC, priority 2022, published 2024).

Tested on: oxygen-induced retinopathy
Conditions: mouse model of retinopathy of prematurity; prenatal supplementation

CC1=C[C@H](O)CC(C)(C)[C@H]1/C=C/C(C)=C/C=C/C(C)=C/C=C/C=C(C)/C=C/C=C(C)/C=C/C1=C(C)C[C@@H](O)CC1(C)C [lutein]
inhibition of oxygen-induced retinopathy: significantly inhibits oxygen-induced retinopathy

CC1=C(/C=C/C(C)=C/C=C/C(C)=C/C=C/C=C(C)/C=C/C=C(C)/C=C/C2=C(C)C[C@@H](O)CC2(C)C)C(C)(C)C[C@H](O)C1 [zeaxanthin]
inhibition of oxygen-induced retinopathy: significantly inhibits oxygen-induced retinopathy
